Measurements reported in patent publication US20140235649A1, “USE OF PHOSPHATASE INHIBITORS OR HISTONE DEACETYLASE INHIBITORS TO TREAT DISEASES CHARACTERIZED BY LOSS OF PROTEIN FUNCTION” (LIXTE BIOTECHNOLOGY, INC., priority 2011, published 2014).
Entries after “also recorded” stand apart in the source; their conditions may differ.

Legend:
[1] = system: SDHB protein; experiment: SDHB protein levels in tumor cells from SDHB derived tumors (Examples 9-10); details: Example 9, versus untreated cells
[2] = system: ΔGBA-N370S; experiment: Metabolic [35S] pulse chase assay, HeLa cells with ΔGBA-N370S vector; format: cell-based, human; details: for increase in radioactively labeled protein quantity: N370S mutant; for GBA quantity: both N370S and L444P mutants
Experimental: Human GBA gene was cloned into pCMV6-Entry vector (Origene; Rockville, Md.). Mutagenesis was performed using a QuikChange Lightning Site-directed mutagenesis kit (Agilent; Santa Clara, Calif.). Mutagenesis reaction was conducted using primers with N370S and L444P mutation sites. For each mutant, the sequence of GBA genes was verified by sequencing the entire coding regions.
Metabolic [^35S] pulse chase assay was performed as previously described with minor modifications (16). A total of 5×10^5 HeLa cells were transfected with GBA vectors through FuGene 6 transfection reagent (Roche; Indianapolis, Ind.). Cells were used for pulse chase assay 24 hr after transfection. Cells were starved in methionine-depleted medium for 15 min followed by 15 min labeling in methionine-free Delbecco's modified Eagle medium (DMEM) supplemented with 10% FBS and 0.2 mCi/mL [^35S]-methionine ([…] specific activity, Perkin Elmer). The cells were then chased in DMEM with 10% FBS and 3 mg/mL methionine. Cells were extracted for protein within various durations after radioactive labeling. Cells were lysed in RIPA lysis buffer containing with Halt proteinase inhibitor cocktail (Thermo; Waltham, Mass.). GBA proteins were purified through immunoprecipitation using 200 ug total lysate with Flag antibody (Origene; Rockville, Md.). Precipitated proteins were resolved on NuPAGE Novex 4-12% Bis-Tris Gel (Invitrogen; Carlesbad, Calif.) and measured by liquid scintillation counting. The gel was fixed and incubated in EN3HANCE (Perkin Elmer; Waltham, Mass.) for 45 min and dried for X-ray film exposure.

[3] = system: acetylated histone 3; experiment: Western blot for acetylated histone 3 in DAOY xenografts; format: in vivo, SCID mice
[4] = system: ΔSDHB-L65P; experiment: ΔSDHB-L65P protein half-life through CHX treatment, Western blot, HeLa cells; format: cell-based, human; details: L65P mutant
Experimental: Western blot analysis was performed as previously described with minor modifications (Zhuang et al, 2011). Microdissected tumor tissue and cell pellets were extracted for protein using RIPA lysis buffer supplemented with Halt proteinase inhibitor cocktail (Thermo Scientific, Rockford, Ill.). Protein was vortexed at 4° C. for 20 min and centrifuged in 12,000 g for 10 min at 4° C. Supernatant was collected and protein quantity was identified through a Bio-Rad (Hercules, Calif.) Protein Assay kit. Equal amount of proteins were separated on NuPAGE 4-12% Bis-Tris gel (Invitrogen, Carlsbad, Calif.) and transferred to PVDF membranes (Invitrogen). Membranes were blocked in 5% skim dried milk in PBST and blotted with primary antibody. Protein expression was identified through chemiluminescence kit (Thermo Scientific). The following antibodies were used: SDHA (1:1,000, Cell Signaling Technology, Beverly, Mass.), SDHB (1:1,000, Sigma-Aldrich, St. Louis Mo.), Flag (1:2,000, Origene, Rockville, Md.), Ubiquitin (1:1,000, Abcam, Cambridge, Mass.), HA (1:2,000, Origene), Hsp90 (1:1,000, Cell Signaling Technology) and β-Actin (1:1,000, Santa Cruz Biotechnology, Inc., Santa Cruz, Calif.).
HeLa cells were maintained in DMEM containing 10% FBS (Invitrogen). Cells were transfected with SDHB vectors by FuGENE 6 transfection reagent (Roche, Indianapolis, Ind.). Medium was changed 4 hours after transfection and cells were maintained 48 hours before cycloheximide (20 μg/mL, Sigma-Aldrich) treatment.
Ubiquitin-HA vector was described previously (Kamitani et al. (1997)). Human wild type SDHB gene was cloned into pCMV6-Entry vector (Origene). Hot spot missense mutations in SDHB related PHEOs/PGLs based on previous findings (Van Nederveen et al. (2006); Henderson et al. (2009); Pawlu et al. (2005)). Mutagenesis was performed based on wild type SDHB vector using a Quikchange Lightning Site-Directed Mutagenesis Kit (Agilent, Santa Clara, Calif.). For each mutant, the sequence of SDHB gene was verified through sequencing the entire coding region of the gene. Vectors were purified through PureLink HiPure Plasmid Maxiprep kit (Invitrogen) for transfection and cell free protein expression.

[5] = system: HDAC; experiment: HDAC activity assay in DAOY cells; format: cell-based; details: DAOY medulloblastoma cells, 1 h treatment
Experimental: Cultured DAOY cells, a medulloblastoma cell line, were plated in […] flasks. When the cells were 80% confluent, the media was replaced with media containing retinoic acid (RA) (5.0 μm), Trichostatin A (1 μm), SAHA (2.0 μm), LB-205 (5.0 μm), LB-205 ([…]), or PBS control. After 1 h, the cells were washed 3 times with a 0.9% normal saline solution. Cells were lysed in Tissue protein extraction reagent (T-PER) (Pierce Biotechnology; Rockford, Ill.), sonicated, and centrifuged. Nuclear cellular extracts were assayed from 0 to 50 μg per well using HDAC Assay Kit (Active Motif; Carlsbad, Calif.).

[6] = system: HDACs; experiment: Western blot for acetylated histone 3 in type 1 GD fibroblasts; details: GD type 1 fibroblasts, 2.5 μM
Experimental: Cell lines were obtained from the Development and Metabolic Neurology Branch of the National Institute of Neurological Disorders and Stroke (NINDS). Type 1 GD fibroblast is homozygous for N370S mutation. Type II and III GD fibroblasts are homozygous for L444P mutation.
Cell pellets were lysed in T-PER Tissue Protein Extraction Reagent solution (T-PER) (Thermo; Waltham, Mass.), sonicated, and centrifuged. Protein was determined in the supernatant solution by using the Bio-Rad Protein Assay kit (Bio-Rad; Hercules, Calif.). […] Blocking buffer solution was used before immunoblotting with primary antibody. Expression of GBA was determined by Western blotting using monoclonal antibody at a dilution of 1:1,000. Acetylated histone 3 rabbit antibody (Cell Signaling Technology; Beverley, Mass.) was used to detect HDACi function. […] Detection of antibodies was performed with a horseradish peroxidase-conjugated species-specific secondary antibody and an enhanced chemiluminescence system. Densitometric analysis using image software (NIH ImageJ software; Bethesda, Md.) was used to quantify the expression of GBA.

[7] = system: mutant SDHB protein; experiment: Immunoprecipitation of mutant SDHB: ubiquitination and Hsp90 binding; format: cell-based, human; details: immunoprecipitated ΔSDHB-R49Q (FIG. 14E)
Experimental: Protein was extracted from cell cultures using IP lysis buffer with Halt proteinase inhibitor cocktail (Thermo Scientific). Four hundred microgram of total protein was precipitated with Flag antibody (1:200, Origene) using a DynaBeads Protein G immunoprecipitation kit (Invitrogen). Proteins were precipitated overnight at 4° C. and eluted for Western blot analysis.

[8] = system: missense glucocerebrosidase; details: previously found (REF); cited from earlier work
[9] = system: mutant GBA (L444P); experiment: Co-immunoprecipitation of GBA: ubiquitination and chaperonin binding; details: L444P mutants
Experimental: Immunoprecipitation was performed using DynaBeads Protein G immunoprecipitation kit (Invitrogen; Carlesbad, Calif.). Cells were harvested and extracted for protein using IP lysis buffer (Thermo; Waltham, Mass.). Two hundred microgram of whole cell protein was precipitated in 4° C. with monoclonal antibody against Flag tag (1:200, Origene; Rockville, Md.). Precipitated protein was eluted and analyzed through Western blotting.

Row | Structure (SMILES) | SDHB levels [1] | degradation of SDHB [1] | increase in radioactively labeled protein quantity [2] | GBA quantity [2] | HDAC inhibition (acetylated histone 3) lasting longer than that of SAHA ([3]; DAOY xenografts, in vivo) | effectiveness by Western blotting for Ac-H3 ([3]; FIG. 4D) | degradation / loss of mutant SDHB protein [4] | HDAC inhibition [5] | HDAC inhibition (acetylated histone 3) [6] | Hsp90 binding to mutant SDHB [7] | SDHB mutant protein ubiquitination [7] | co-translational degradation of missense glucocerebrosidase [8] | GBA ubiquitination [9] | Hsp70 binding to GBA [9] | TCP1 binding to GBA [9]
1 | O=C(CCCCCNC(=O)c1ccccc1S)Nc1cccnc1 [LB-205] | significantly higher than in untreated cells | decreased degradation of SDHB | 27% | increased GBA quantity | at least 4 hours | longer effectiveness | decreased the loss of mutant SDHB | dose-dependent HDAC inhibition | inhibited HDACs | also decreased | decreased SDHB mutant protein ubiquitination | protect missense glucocerebrosidase from co-translational degradation | decreased GBA ubiquitination | no change in TCP1 and Hsp70 binding | without changing the level of TCP1 binding
2 | O=C(CCCCCCC(=O)Nc1ccccc1)NO [SAHA, suberoylanilide hydroxamic acid, reference compound] | significantly higher than in untreated cells | decreased degradation of SDHB | 12% | increased GBA quantity | – | – | slowed the degradation of mutant protein; also recorded: decreased the loss of mutant SDHB | – | – | also decreased | decreased SDHB mutant protein ubiquitination | – | decreased GBA ubiquitination | no change in TCP1 and Hsp70 binding | without changing the level of TCP1 binding
